Laboratory results: US20170333591A9, “ABSORBENT ARTICLE COMPRISING MALODOR REDUCTION COMPOSITIONS” (The Procter & Gamble Company, priority 2014, published 2017)

Assay: Log of liquid dish neat product liquid-air partition coefficient
Assay type: physicochemical
Details: for Log of liquid dish neat product liquid-air partition coefficient (Comment Code): code letters K/L of the Comment Code

SMILES	Comment Code: Log of liquid dish neat product liquid-air partition coefficient	Log of liquid dish neat product liquid-air partition coefficient (Comment Code)
O=C1CCCC=CCCCCCCCCCC1 [Material 788]	K (Log of liquid dish neat product liquid-air partition coefficient greater than or equal to 7)	K (Log of liquid dish neat product liquid-air partition coefficient greater than or equal to 7)
C=Cc1ccc(O)cc1 [Material 789]	K (Log of liquid dish neat product liquid-air partition coefficient greater than or equal to 7)	
CC1=CCC(O)(C(C)C)CC1 (stereo not shown) [Material 791]		K (Log of liquid dish neat product liquid-air partition coefficient greater than or equal to 7)
C=CCCC(=O)c1ccccc1 [Material 792]		K (Log of liquid dish neat product liquid-air partition coefficient greater than or equal to 7)
CCc1ccc(OC)c(O)c1 [Material 797]	K (Log of liquid dish neat product liquid-air partition coefficient greater than or equal to 7)	
CC1=CCC(O)(C(C)C)CC1 (stereo not shown) [Material 800]		K (Log of liquid dish neat product liquid-air partition coefficient greater than or equal to 7)
COc1ccc(CCC(C)=O)cc1 [Material 803]		K (Log of liquid dish neat product liquid-air partition coefficient greater than or equal to 7)
CC1C(=O)CC2(C)CCCC(C)(C)C23CC13 (stereo not shown) [Material 804]	K (Log of liquid dish neat product liquid-air partition coefficient greater than or equal to 7)	K (Log of liquid dish neat product liquid-air partition coefficient greater than or equal to 7)
CCC=C1OC(=O)c2ccccc21 [Material 805]		K (Log of liquid dish neat product liquid-air partition coefficient greater than or equal to 7)
CCCCCCCCCC=CC=O [Material 806]		K (Log of liquid dish neat product liquid-air partition coefficient greater than or equal to 7)
CC(CC=O)CCc1ccccc1 (stereo not shown) [Material 807]		K (Log of liquid dish neat product liquid-air partition coefficient greater than or equal to 7)
Cc1n[nH]cc1-c1ccccc1 [Material 808]	K (Log of liquid dish neat product liquid-air partition coefficient greater than or equal to 7)	
COc1cc(C)cc(O)c1 [Material 811]	K (Log of liquid dish neat product liquid-air partition coefficient greater than or equal to 7)	
C=C(C=O)C(C)CCC=C(C)C (stereo not shown) [Material 819]	K (Log of liquid dish neat product liquid-air partition coefficient greater than or equal to 7)	
CC(C)c1ccc(CCC=O)cc1 [Material 826]		K (Log of liquid dish neat product liquid-air partition coefficient greater than or equal to 7)
CCCCCCCCC=CC#N [Material 827]		K (Log of liquid dish neat product liquid-air partition coefficient greater than or equal to 7)
CCCCCCCCC=CC=O [Material 828]		K (Log of liquid dish neat product liquid-air partition coefficient greater than or equal to 7)
CCCC(=O)OCCc1ccccc1 [Material 831]		K (Log of liquid dish neat product liquid-air partition coefficient greater than or equal to 7)
CC(=O)OCCc1ccccc1 [Material 832]	K (Log of liquid dish neat product liquid-air partition coefficient greater than or equal to 7)	
OCCOc1ccccc1 [Material 834]		K (Log of liquid dish neat product liquid-air partition coefficient greater than or equal to 7)
CCC(=O)OCCc1ccccc1 [Material 835]	K (Log of liquid dish neat product liquid-air partition coefficient greater than or equal to 7)	
CCCCCCCC1(C)OCC(C)O1 (stereo not shown) [Material 838]	K (Log of liquid dish neat product liquid-air partition coefficient greater than or equal to 7)	
CCC(C)c1nccnc1OC (stereo not shown) [Material 845]	K (Log of liquid dish neat product liquid-air partition coefficient greater than or equal to 7)	
CNC(=O)C(C)(C(C)C)C(C)C [Material 846]	K (Log of liquid dish neat product liquid-air partition coefficient greater than or equal to 7)	

SMILES	Comment Code: Log of liquid dish neat product liquid-air partition coefficient	Log of liquid dish neat product liquid-air partition coefficient (Comment Code)
CC(C)Cc1ccc2ccccc2n1 [Material 849]		K (Log of liquid dish neat product liquid-air partition coefficient greater than or equal to 7)
CCC=CCCC=CCO [Material 865]		K (Log of liquid dish neat product liquid-air partition coefficient greater than or equal to 7)
CCCCCCCCCCO [Material 868]		K (Log of liquid dish neat product liquid-air partition coefficient greater than or equal to 7)
C=CCCCCCCCCCO [Material 870]		K (Log of liquid dish neat product liquid-air partition coefficient greater than or equal to 7)
C=CCCCCCCCCC=O [Material 871]		K (Log of liquid dish neat product liquid-air partition coefficient greater than or equal to 7)
CC1=C2CC(C(C)(C)O)CCC2(C)CCC1 (stereo not shown) [Material 872]	K (Log of liquid dish neat product liquid-air partition coefficient greater than or equal to 7)	K (Log of liquid dish neat product liquid-air partition coefficient greater than or equal to 7)
CC=CC(=O)C1C(C)=CCCC1(C)C (stereo not shown) [Material 880]	K (Log of liquid dish neat product liquid-air partition coefficient greater than or equal to 7)	
CC(=O)OC(C)CCC=C(C)CCC=C(C)C (stereo not shown) [Material 881]		K (Log of liquid dish neat product liquid-air partition coefficient greater than or equal to 7)
CCCCCCCC/C=C\CC=O [Material 884]		K (Log of liquid dish neat product liquid-air partition coefficient greater than or equal to 7)
C=C[C@](C)(O)CCC=C(C)C [Material 888]	K (Log of liquid dish neat product liquid-air partition coefficient greater than or equal to 7)	
CC(=O)OC(C)CC/C=C(\C)CCC=C(C)C (stereo not shown) [Material 890]		K (Log of liquid dish neat product liquid-air partition coefficient greater than or equal to 7)
C/C(=C/C#N)CCc1ccccc1 [Material 892]		K (Log of liquid dish neat product liquid-air partition coefficient greater than or equal to 7)
CC1CCC2(O1)C(C)(C)CCCC2(C)O (stereo not shown) [Material 893]		K (Log of liquid dish neat product liquid-air partition coefficient greater than or equal to 7)
C/C(=C\C#N)CCc1ccccc1 [Material 894]		K (Log of liquid dish neat product liquid-air partition coefficient greater than or equal to 7)
CC(=CCC1CC=C(C)C1(C)C)CO (stereo not shown) [Material 908]		K (Log of liquid dish neat product liquid-air partition coefficient greater than or equal to 7)
CC1=CC2CC(C3OCCO3)C1CC2C(C)C (stereo not shown) [Material 912]		K (Log of liquid dish neat product liquid-air partition coefficient greater than or equal to 7)
C=C1CCCC(C)(C)C1C=C(C)C(C)=O (stereo not shown) [Material 913]		K (Log of liquid dish neat product liquid-air partition coefficient greater than or equal to 7)
CC(C)c1cccc(C(C)CC=O)c1 (stereo not shown) [Material 914]		K (Log of liquid dish neat product liquid-air partition coefficient greater than or equal to 7)
C=CC(C)(CCC=C(C)C)OC(C)OCC (stereo not shown) [Material 916]		K (Log of liquid dish neat product liquid-air partition coefficient greater than or equal to 7)
C=CCOC(=O)COC1CCCCC1 [Material 918]	K (Log of liquid dish neat product liquid-air partition coefficient greater than or equal to 7)	
CCC(=O)OC1CC2CC1C1CC=CC21 (stereo not shown) [Material 919]	K (Log of liquid dish neat product liquid-air partition coefficient greater than or equal to 7)	K (Log of liquid dish neat product liquid-air partition coefficient greater than or equal to 7)
CC1=C2CCC(C)C2CC(C(C)(C)O)CC1 (stereo not shown) [Material 920]		K (Log of liquid dish neat product liquid-air partition coefficient greater than or equal to 7)
CC12CCCC(C)(CC1)C2=NO [Material 921]	K (Log of liquid dish neat product liquid-air partition coefficient greater than or equal to 7)	
C/C=C/c1cc(OC)c(OC)cc1OC [Material 924]		K (Log of liquid dish neat product liquid-air partition coefficient greater than or equal to 7)
